Laboratory results reported in patent publication US20260042753A1 (Merck Patent GmbH, priority 2019, published 2026).
Like-named read-outs stand apart in the source and are kept apart here.

Assays:
[1] = molecular target: mutant cKIT (560-576 and V654A) in GIST430/654 cell line (Homo sapiens (Human), UniProt P10721, DEL560-576/V654A); assay: Cellular testing of cKIT mutant inhibitors: phospho-Y307-cKIT Luminex assay in GIST430/654 cells; type: cell-based; settings: read-out: GIST 430/654 IC50
Method in brief: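 GIST430/654 cells carrying constitutively active cKIT (Δ560-576/V654A) were grown with 100 nM imatinib, then treated with serially diluted compound for 45 min. Lysates were captured on anti-total-cKIT Luminex beads overnight at 4 °C and probed for phospho-Y307-cKIT. IC50 was fitted from percent of 0.3% DMSO control.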

[2] = molecular target: c-Kit(V654A) (Homo sapiens, UniProt P10721, V654A); assay: c-Kit(V654A) assay; type: biochemical
Method in brief: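 Radiometric filter-binding read-out: after 3% phosphoric acid stop, peptide-incorporated 33P on filtermat scintillation-counted. Enzyme: human c-Kit V654A, residues 544–end, N-terminal GST fusion.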

[3] = Table 1, cKIT autophosphorylation, compounds 45 min
[4] = Table 2, corresponding triazole derivatives

mutant cKIT (560-576 and V654A) in GIST430/654 cell line, sequence (P10721 other isoform, or with tags, fused parts or gaps V654A/del 1-25/del 560-576 limits assumed): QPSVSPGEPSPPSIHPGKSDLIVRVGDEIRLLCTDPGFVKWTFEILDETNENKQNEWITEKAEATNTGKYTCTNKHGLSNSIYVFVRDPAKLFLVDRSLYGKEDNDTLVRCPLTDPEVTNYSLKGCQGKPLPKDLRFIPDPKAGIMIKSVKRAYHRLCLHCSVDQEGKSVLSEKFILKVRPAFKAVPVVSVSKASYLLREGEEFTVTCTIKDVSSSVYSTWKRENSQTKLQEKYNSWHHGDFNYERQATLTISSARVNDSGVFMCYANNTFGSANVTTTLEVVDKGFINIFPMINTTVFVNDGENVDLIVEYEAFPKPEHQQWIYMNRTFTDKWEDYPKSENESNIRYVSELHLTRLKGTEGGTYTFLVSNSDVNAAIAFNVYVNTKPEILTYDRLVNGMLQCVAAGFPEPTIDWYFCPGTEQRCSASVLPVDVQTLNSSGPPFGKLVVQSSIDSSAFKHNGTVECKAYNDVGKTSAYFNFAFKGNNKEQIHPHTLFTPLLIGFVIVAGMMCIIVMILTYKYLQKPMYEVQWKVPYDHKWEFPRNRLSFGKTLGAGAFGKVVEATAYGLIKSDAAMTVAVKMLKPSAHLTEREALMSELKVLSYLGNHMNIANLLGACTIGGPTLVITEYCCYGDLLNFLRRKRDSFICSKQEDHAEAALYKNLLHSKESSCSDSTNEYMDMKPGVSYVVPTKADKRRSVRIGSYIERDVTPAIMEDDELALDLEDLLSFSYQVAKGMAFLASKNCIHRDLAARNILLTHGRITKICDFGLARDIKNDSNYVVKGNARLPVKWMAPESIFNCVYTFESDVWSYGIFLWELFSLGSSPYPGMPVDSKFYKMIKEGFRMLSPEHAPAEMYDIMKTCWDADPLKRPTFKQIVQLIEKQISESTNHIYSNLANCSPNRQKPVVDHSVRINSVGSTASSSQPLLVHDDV

SMILES | IC50 [1, 3] | IC50 ([2]; Table 1, 200 μM ATP) | IC50 [1, 4] | IC50 [2, 4]
COCCOc1cc2[nH]nc(-c3cc(-c4ccc(N5CCCS5(=O)=O)cc4)no3)c2cc1F [A138, 2-(4-{5-[5-fluoro-6-(2-methoxyethoxy)-1H-indazol-3-yl]-1,2-oxazol-3-yl}phenyl)-1lambda6,2-thiazolidine-1,1-dione] | 0.16 µM | 0.0064 µM |  | 
COCCOc1cc2[nH]nc(-c3cc(-c4ccc(C(=O)NCCN(C)C)cc4)no3)c2cc1F [A72, N-[2-(dimethylamino)ethyl]-4-{5-[5-fluoro-6-(2-methoxyethoxy)-1H-indazol-3-yl]-1,2-oxazol-3-yl}benzamide] | 0.32 µM | 0.0026 µM |  | 
COCCOc1cc2[nH]nc(-c3cc(-c4ccc(C(=O)N5CC(F)C5)cn4)no3)c2cc1F [A81, 5-fluoro-3-{3-[5-(3-fluoroazetidine-1-carbonyl)pyridin-2-yl]-1,2-oxazol-5-yl}-6-(2-methoxyethoxy)-1H-indazole] | 0.21 µM | 0.006 µM |  | 
COCCOc1cc2[nH]nc(-c3cc(-c4ccc(C(=O)N5CCC[C@H]5CO)nc4)no3)c2cc1F [A63, (5-{5-[5-fluoro-6-(2-methoxy-ethoxy)-1H-indazol-3-yl]-isoxazol-3-yl}-pyridin-2-yl)-((S)-2-hydroxymethyl-pyrrolidin-1-yl)-methanone] | 0.29 µM | 0.0057 µM |  | 
COCCOc1cc2[nH]nc(-c3cc(-c4ccc(N5CC[C@@H]6[C@H]5CCCN6C)cc4)no3)c2cc1F (relative stereo) [A124, 3-(3-{4-[(cis)-4-methyl-octahydro-1H-pyrrolo[3,2-b]pyridin-1-yl]phenyl}-1,2-oxazol-5-yl)-5-fluoro-6-(2-methoxyethoxy)-1H-indazole] | 0.085 µM | 0.00035 µM |  | 
COCCOc1cc2[nH]nc(-c3cc(-c4ccc(C(=O)N5C[C@H]6COC[C@H]6C5)c(F)c4)no3)c2cc1F [A71, (2-fluoro-4-{5-[5-fluoro-6-(2-methoxy-ethoxy)-1H-indazol-3-yl]-isoxazol-3-yl}-phenyl)-(cis)-tetrahydro-furo[3,4-c]pyrrol-5-yl-methanone] | 0.09 µM | 0.0043 µM |  | 
Cn1cc(-c2ccc3c(-c4cc(-c5ccc(C(=O)N6CCC[C@@H]6C(C)(C)O)cc5)no4)n[nH]c3c2)cn1 [A8, 2-[(2R)-1-(4-{5-[6-(1-methyl-1H-pyrazol-4-yl)-1H-indazol-3-yl]-1,2-oxazol-3-yl}benzoyl)pyrrolidin-2-yl]propan-2-ol] | 0.28 µM | 0.02 µM |  | 
COCCOc1cc2[nH]nc(-c3cc(-c4ccc(Oc5ccccn5)cc4)no3)c2cc1F [A143, 5-fluoro-6-(2-methoxyethoxy)-3-{3-[4-(pyridin-2-yloxy)phenyl]-1,2-oxazol-5-yl}-1H-indazole] | 0.86 µM | 0.018 µM |  | 
C[C@H]1CN(C)CCN1C(=O)c1ccc(-c2cc(-c3n[nH]c4cc(C(F)(F)F)ccc34)on2)cc1 [A50, 3-(3-{4-[(2S)-2,4-dimethylpiperazine-1-carbonyl]phenyl}-1,2-oxazol-5-yl)-6-(trifluoromethyl)-1H-indazole] | 0.73 µM | 0.014 µM |  | 
COCCOc1cc2[nH]nc(-c3cc(-c4ccc(C(=O)N5CCO[C@@H](C)C5)cc4)no3)c2cc1F [A189, 5-fluoro-6-(2-methoxyethoxy)-3-(3-{4-[(2S)-2-methylmorpholine-4-carbonyl]phenyl}-1,2-oxazol-5-yl)-1H-indazole] | 0.048 µM | 0.0019 µM |  | 
COCCOc1cc2[nH]nc(-c3cc(-c4ccc(N5CCOCC5=O)cc4)no3)c2cc1F [A139, 4-(4-{5-[5-fluoro-6-(2-methoxyethoxy)-1H-indazol-3-yl]-1,2-oxazol-3-yl}phenyl)morpholin-3-one] | 0.068 µM | 0.0012 µM |  | 
COCCOc1cc2[nH]nc(-c3cc(-c4ccc(C(=O)N5CC[C@@H](F)C5)cc4)no3)c2cc1F [A27, 5-fluoro-3-(3-{4-[(3R)-3-fluoropyrrolidine-1-carbonyl]phenyl}-1,2-oxazol-5-yl)-6-(2-methoxyethoxy)-1H-indazole] | 0.057 µM | 0.0012 µM |  | 
O=C(c1ccc(-c2cc(-c3n[nH]c4cc(OCCO)c(F)cc34)on2)cc1)N1CCNCC1 [A224, 2-[(5-fluoro-3-{3-[4-(piperazine-1-carbonyl)phenyl]-1,2-oxazol-5-yl}-1H-indazol-6-yl)oxy]ethan-1-ol] | 0.25 µM | 0.0011 µM |  | 
COCCOc1cc2[nH]nc(-c3cn(-c4ccc(C(=O)N5CC(N6CCOCC6)C5)c(C)c4)nn3)c2cc1F [reference compound] |  |  | 0.87 µM | 0.013 µM
COCCOc1cc2[nH]nc(-c3cc(-c4ccc(C(=O)N(C)C)cc4)no3)c2cc1C#N [A6, 4-{5-[5-cyano-6-(2-methoxyethoxy)-1H-indazol-3-yl]-1,2-oxazol-3-yl}-N,N-dimethylbenzamide] | 0.15 µM | 0.0041 µM |  | 
COCCOc1cc2[nH]nc(-c3cc(-c4ccc(C(=O)N5CC(C)(O)C5)cc4)no3)c2cc1F [A34, 1-(4-{5-[5-fluoro-6-(2-methoxyethoxy)-1H-indazol-3-yl]-1,2-oxazol-3-yl}benzoyl)-3-methylazetidin-3-ol] | 0.12 µM | 0.00083 µM |  | 
COCCOc1cc2[nH]nc(-c3cc(-c4ccc(N5CCN(C)CC5)cc4)no3)c2cc1F [A37, 5-fluoro-6-(2-methoxyethoxy)-3-{3-[4-(4-methylpiperazin-1-yl)phenyl]-1,2-oxazol-5-yl}-1H-indazole] | 0.079 µM | 0.002 µM |  | 
COCCOc1cc2[nH]nc(-c3cc(-c4ccc(N5CC[S+]([O-])CC5)cc4)no3)c2cc1F [A127, 4-(4-{5-[5-fluoro-6-(2-methoxyethoxy)-1H-indazol-3-yl]-1,2-oxazol-3-yl}phenyl)-1lambda4-thiomorpholin-1-one] | 0.024 µM | 0.00037 µM |  | 
COCCOc1cc2[nH]nc(-c3cc(-c4ccc(C(=O)N5CCOC[C@@H]5CO)cc4)no3)c2cc1F [A106, [(3S)-4-(4-{5-[5-fluoro-6-(2-methoxyethoxy)-1H-indazol-3-yl]-1,2-oxazol-3-yl}benzoyl)morpholin-3-yl]methanol] | 0.077 µM | 0.0007 µM |  | 
[2H]C1([2H])N(C(=O)c2ccc(-c3cc(-c4n[nH]c5cc(OCCOC)c(F)cc45)on3)cc2)C([2H])([2H])C([2H])([2H])N(C2COC2)C1([2H])[2H] [A233, 5-fluoro-6-(2-methoxyethoxy)-3-(3-{4-[4-(oxetan-3-yl)(2,2,3,3,5,5,6,6-^2H8)piperazine-1-carbonyl]phenyl}-1,2-oxazol-5-yl)-1H-indazole] | 0.076 µM | 0.001 µM |  | 
COCCOc1cc2[nH]nc(-c3cc(-c4ccc(NC(C)=O)cc4)no3)c2cc1F [A18, N-(4-{5-[5-fluoro-6-(2-methoxyethoxy)-1H-indazol-3-yl]-1,2-oxazol-3-yl}phenyl)acetamide] | 0.16 µM | 0.0082 µM |  | 
COCCOc1cc2[nH]nc(-c3cc(-c4ccc(C(=O)N5CC(N6CCOCC6=O)C5)cc4)no3)c2cc1F [A204, 4-[1-(4-{5-[5-fluoro-6-(2-methoxyethoxy)-1H-indazol-3-yl]-1,2-oxazol-3-yl}benzoyl)azetidin-3-yl]morpholin-3-one] | 0.061 µM | 0.00088 µM |  | 
COCCOc1cc2[nH]nc(-c3cc(-c4ccc(C(=O)N5CC[C@@H]5C(C)(C)O)nc4)no3)c2cc1F [A119, (5-{5-[5-fluoro-6-(2-methoxy-ethoxy)-1H-indazol-3-yl]-isoxazol-3-yl}-pyridin-2-yl)-[(R)-2-(1-hydroxy-1-methyl-ethyl)-azetidin-1-yl]-methanone] | 0.34 µM | 0.012 µM |  | 
COCCOc1cc2[nH]nc(-c3cc(-c4ncc(C(=O)N(C)C)s4)no3)c2cc1F [A92, 2-{5-[5-fluoro-6-(2-methoxyethoxy)-1H-indazol-3-yl]-1,2-oxazol-3-yl}-N,N-dimethyl-1,3-thiazole-5-carboxamide] | 0.36 µM | 0.055 µM |  | 
COCCOc1cc2[nH]nc(-c3cn(-c4ccc(N5CCN(C)CC5)cc4)nn3)c2cc1F [reference compound] |  |  | 1 µM | 0.015 µM
COCCOc1cc2[nH]nc(-c3cc(-c4ccc(C(=O)N5CCN(C6COC6)CC5C)cc4)no3)c2cc1F (stereo not drawn) [A174, 5-fluoro-6-(2-methoxyethoxy)-3-(3-{4-[2-methyl-4-(oxetan-3-yl)piperazine-1-carbonyl]phenyl}-1,2-oxazol-5-yl)-1H-indazole] | 0.035 µM | 0.0013 µM |  | 
COCCOc1cc2[nH]nc(-c3cc(-c4ccc(C(=O)N5CC[C@H]6CNC(=O)[C@H]65)cc4)no3)c2cc1F (relative stereo) [A89, (cis)-1-(4-{5-[5-fluoro-6-(2-methoxyethoxy)-1H-indazol-3-yl]-1,2-oxazol-3-yl}benzoyl)-octahydropyrrolo[3,4-b]pyrrol-6-one] | 0.32 µM | 0.00057 µM |  | 
COCCOc1cc2[nH]nc(-c3cc(-c4ccc(C(=O)N5CC(C#N)C5)cc4)no3)c2cc1F [A28, 1-(4-{5-[5-fluoro-6-(2-methoxyethoxy)-1H-indazol-3-yl]-1,2-oxazol-3-yl}benzoyl)azetidine-3-carbonitrile] | 0.039 µM | 0.002 µM |  | 
COCCOc1cc2[nH]nc(-c3cc(-c4ccc(C(=O)N5CC(C)(N(C)C)C5)cc4)no3)c2cc1F [A181, 1-(4-{5-[5-fluoro-6-(2-methoxyethoxy)-1H-indazol-3-yl]-1,2-oxazol-3-yl}benzoyl)-N,N,3-trimethylazetidin-3-amine] | 0.04 µM | 0.001 µM |  | 
O=C(c1ccc(-c2cc(-c3n[nH]c4cc(OCCO)c(F)cc34)on2)cc1)N1CCN(C2COC2)CC1 [A205, 2-{[5-fluoro-3-(3-{4-[4-(oxetan-3-yl)piperazine-1-carbonyl]phenyl}-1,2-oxazol-5-yl)-1H-indazol-6-yl]oxy}ethan-1-ol] | 0.13 µM | 0.023 µM |  | 
